# Reference: ChEMBL document CHEMBL2396580, “Spongiacidin C, a pyrrole alkaloid from the marine sponge Stylissa massa, functions as a USP7 inhibitor” (Bioorg Med Chem Lett, 2013)
# Active and inactive are the calls of the source. The calls are words filed in the database; no cut-off is given here.
# Experiments:
# [1] = target: T1, Ubiquitin carboxyl-terminal hydrolase 7 (Homo sapiens, UniProt Q93009); test: Inhibition of USP7 (unknown origin) using ubiquitin-EKL as substrate
# Target sequence in this assay (Q93009 whole entry): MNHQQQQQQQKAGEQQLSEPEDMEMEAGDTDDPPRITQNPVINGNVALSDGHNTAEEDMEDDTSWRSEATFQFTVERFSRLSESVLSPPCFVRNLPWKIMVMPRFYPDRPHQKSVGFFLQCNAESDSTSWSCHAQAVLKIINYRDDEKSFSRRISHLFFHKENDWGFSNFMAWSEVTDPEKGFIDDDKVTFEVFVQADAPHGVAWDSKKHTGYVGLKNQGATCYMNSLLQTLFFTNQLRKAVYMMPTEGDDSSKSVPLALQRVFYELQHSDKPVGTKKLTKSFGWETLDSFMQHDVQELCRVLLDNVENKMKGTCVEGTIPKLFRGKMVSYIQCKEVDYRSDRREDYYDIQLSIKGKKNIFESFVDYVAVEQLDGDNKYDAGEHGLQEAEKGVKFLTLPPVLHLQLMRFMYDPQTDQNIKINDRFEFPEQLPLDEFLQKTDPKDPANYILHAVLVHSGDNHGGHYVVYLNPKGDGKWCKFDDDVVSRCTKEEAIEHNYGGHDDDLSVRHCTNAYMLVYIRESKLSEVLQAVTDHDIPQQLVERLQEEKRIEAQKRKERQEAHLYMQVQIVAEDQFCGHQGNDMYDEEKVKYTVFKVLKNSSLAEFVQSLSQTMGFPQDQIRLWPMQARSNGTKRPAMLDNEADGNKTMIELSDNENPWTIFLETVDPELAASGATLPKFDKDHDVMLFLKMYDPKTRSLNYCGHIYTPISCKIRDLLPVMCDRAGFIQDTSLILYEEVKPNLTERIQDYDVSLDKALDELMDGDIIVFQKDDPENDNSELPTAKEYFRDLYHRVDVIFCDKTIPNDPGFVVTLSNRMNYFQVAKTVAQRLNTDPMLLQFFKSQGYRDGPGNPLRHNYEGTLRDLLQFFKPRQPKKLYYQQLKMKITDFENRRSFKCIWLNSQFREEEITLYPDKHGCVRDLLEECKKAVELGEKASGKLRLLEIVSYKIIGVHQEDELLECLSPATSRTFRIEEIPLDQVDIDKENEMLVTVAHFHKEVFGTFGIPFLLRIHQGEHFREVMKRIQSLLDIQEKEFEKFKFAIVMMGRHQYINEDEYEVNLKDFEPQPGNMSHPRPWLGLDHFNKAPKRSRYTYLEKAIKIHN
# [2] = target: T1, Ubiquitin carboxyl-terminal hydrolase 7; test: Inhibition of USP7 (unknown origin) using ubiquitin-EKL as substrate at 20 uM
# Target sequence in this assay (Q93009 whole entry, looked up): as the sequence (Q93009 whole entry) above
# [3] = target: T2, Ubiquitin carboxyl-terminal hydrolase 8 (Homo sapiens, UniProt P40818); test: Inhibition of core catalytic domain of USP8 (unknown origin) using ubiquitin-Rh110 as substrate
# T2 sequence (P40818 whole entry): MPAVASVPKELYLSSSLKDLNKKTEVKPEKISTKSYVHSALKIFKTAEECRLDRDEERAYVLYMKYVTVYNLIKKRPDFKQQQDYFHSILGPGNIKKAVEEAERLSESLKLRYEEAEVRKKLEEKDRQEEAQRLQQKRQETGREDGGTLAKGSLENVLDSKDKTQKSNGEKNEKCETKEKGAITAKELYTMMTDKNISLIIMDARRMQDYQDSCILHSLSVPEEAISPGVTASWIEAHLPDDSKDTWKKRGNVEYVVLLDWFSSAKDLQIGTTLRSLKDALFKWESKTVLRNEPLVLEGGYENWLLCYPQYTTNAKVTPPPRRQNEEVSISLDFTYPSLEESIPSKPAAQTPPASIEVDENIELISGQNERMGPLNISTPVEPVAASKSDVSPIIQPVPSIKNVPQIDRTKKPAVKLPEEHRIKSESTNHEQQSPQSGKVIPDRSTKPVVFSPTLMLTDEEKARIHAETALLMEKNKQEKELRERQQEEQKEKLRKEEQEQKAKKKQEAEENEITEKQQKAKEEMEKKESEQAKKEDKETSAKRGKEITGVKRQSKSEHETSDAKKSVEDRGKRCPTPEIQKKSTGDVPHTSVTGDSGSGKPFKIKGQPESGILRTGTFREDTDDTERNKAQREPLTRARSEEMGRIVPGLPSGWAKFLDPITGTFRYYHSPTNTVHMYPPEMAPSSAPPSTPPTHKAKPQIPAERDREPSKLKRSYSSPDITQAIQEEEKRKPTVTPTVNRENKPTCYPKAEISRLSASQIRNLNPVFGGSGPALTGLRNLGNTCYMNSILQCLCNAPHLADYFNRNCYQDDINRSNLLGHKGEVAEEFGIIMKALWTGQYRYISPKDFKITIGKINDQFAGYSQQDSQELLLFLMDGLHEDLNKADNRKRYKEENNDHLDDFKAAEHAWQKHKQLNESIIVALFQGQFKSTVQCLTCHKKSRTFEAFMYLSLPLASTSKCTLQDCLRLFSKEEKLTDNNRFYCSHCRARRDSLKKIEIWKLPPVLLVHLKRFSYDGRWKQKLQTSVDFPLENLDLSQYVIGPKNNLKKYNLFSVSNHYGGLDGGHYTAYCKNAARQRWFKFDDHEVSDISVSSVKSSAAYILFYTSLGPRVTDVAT
# [4] = target: T3, Sentrin-specific protease 1 (Homo sapiens, UniProt Q9P0U3); test: Inhibition of core catalytic domain of SENP1 (unknown origin) using SUMO3-EKL as substrate
# T3 sequence (Q9P0U3 whole entry): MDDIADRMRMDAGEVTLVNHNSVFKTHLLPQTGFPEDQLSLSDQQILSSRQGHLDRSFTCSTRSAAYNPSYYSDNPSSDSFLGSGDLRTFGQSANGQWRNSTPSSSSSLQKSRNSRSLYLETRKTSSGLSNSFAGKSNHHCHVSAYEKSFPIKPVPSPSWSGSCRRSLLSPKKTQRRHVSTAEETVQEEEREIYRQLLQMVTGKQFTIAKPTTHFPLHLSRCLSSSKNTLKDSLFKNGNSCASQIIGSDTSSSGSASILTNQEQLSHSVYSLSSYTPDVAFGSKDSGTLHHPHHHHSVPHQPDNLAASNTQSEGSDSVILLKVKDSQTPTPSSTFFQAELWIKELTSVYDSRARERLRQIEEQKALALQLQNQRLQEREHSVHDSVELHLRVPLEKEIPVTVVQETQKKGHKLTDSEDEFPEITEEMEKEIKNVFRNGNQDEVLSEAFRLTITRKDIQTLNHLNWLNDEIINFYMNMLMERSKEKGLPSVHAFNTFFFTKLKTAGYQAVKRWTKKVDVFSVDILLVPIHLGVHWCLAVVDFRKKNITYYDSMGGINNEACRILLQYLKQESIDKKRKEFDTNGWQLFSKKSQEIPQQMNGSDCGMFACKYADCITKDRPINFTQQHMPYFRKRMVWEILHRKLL
# [5] = target: T4, Ubiquitin carboxyl-terminal hydrolase 2 (Homo sapiens, UniProt O75604); test: Inhibition of core catalytic domain of USP2 (unknown origin) using diubiquitin IQF K4804 as substrate
# T4 sequence (O75604 whole entry): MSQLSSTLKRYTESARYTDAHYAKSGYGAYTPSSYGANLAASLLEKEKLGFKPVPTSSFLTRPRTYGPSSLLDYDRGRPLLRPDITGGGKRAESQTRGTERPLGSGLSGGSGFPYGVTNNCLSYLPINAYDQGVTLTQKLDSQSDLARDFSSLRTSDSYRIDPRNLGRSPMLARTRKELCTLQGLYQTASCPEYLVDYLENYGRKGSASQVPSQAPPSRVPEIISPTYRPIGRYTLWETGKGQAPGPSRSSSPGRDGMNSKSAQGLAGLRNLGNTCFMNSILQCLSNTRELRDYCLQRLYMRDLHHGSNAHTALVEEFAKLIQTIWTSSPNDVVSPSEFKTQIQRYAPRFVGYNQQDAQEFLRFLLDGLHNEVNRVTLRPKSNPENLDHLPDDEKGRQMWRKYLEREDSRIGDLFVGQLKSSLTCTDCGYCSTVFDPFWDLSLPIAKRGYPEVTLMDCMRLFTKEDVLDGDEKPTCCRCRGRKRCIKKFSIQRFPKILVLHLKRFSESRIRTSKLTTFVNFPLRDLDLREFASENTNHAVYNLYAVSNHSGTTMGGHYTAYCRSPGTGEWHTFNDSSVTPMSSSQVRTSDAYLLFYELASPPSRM
# HCT-116 = test: Antiproliferative activity against p53 wild type human HCT116 cells expressing USP7 assessed as growth inhibition up to 50 uM; type: functional, cell-based
# [6] = target: T5, Ubiquitin carboxyl-terminal hydrolase 21 (Homo sapiens, UniProt Q9UK80); test: Inhibition of core catalytic domain of USP21 (unknown origin) using ubiquitin-Rh110 as substrate
# T5 sequence (Q9UK80 whole entry): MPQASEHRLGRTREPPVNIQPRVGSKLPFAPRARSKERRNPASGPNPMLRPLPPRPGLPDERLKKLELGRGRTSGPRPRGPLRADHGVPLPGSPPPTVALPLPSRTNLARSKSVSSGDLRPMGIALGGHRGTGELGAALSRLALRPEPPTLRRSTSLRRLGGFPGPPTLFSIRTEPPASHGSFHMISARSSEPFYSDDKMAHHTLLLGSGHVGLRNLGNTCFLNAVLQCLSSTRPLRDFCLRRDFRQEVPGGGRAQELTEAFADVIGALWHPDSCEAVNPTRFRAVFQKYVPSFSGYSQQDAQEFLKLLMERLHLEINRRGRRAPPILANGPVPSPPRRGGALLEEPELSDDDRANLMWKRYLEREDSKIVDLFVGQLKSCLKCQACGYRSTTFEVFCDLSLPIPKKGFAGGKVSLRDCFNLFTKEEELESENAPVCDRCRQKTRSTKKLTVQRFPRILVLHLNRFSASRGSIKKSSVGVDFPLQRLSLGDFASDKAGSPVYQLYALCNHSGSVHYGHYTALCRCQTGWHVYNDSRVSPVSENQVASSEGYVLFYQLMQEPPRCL
Compound,IC50 [1],inhibition [2],also measured
NC1=N/C(=C2/CCNC(=O)c3[nH]ccc32)C(=O)N1,,20%,
O=C1NC(=O)/C(=C2\CCNC(=O)c3[nH]ccc32)N1 [SPONGIACIDIN C],3.8 µM,,IC50 [3]: > 31.6 µM; IC50 [4]: > 31.6 µM; IC50 [5]: > 31.6 µM; growth inhibition (GI) (HCT-116): inactive; IC50 [6]: 16.6 µM
CN(CCCNC(=O)c1ccc2nc3c(c(Cl)c2c1)CCCC3)Cc1ccccc1,28.1 µM,,

# Continued, in another order:
IC50 [1],inhibition [2],Compound,also measured
0.42 µM,,N#Cc1nc2c(nc1C#N)-c1ccc(Cl)cc1C2=O,
,20%,NC1=NC(=O)/C(=C2\CCNC(=O)c3[nH]c(Br)cc32)N1,
22.6 µM,,CCN(CCCNC(=O)c1ccc2nc3c(c(Cl)c2c1)CCCC3)Cc1ccccc1,
